Here are results for 20 molecules from US20050233973A1, “Tri-peptides for antidepressant applications” (priority 1997, published 2005).

The IC50 is the concentration needed to halve the response being measured. Read a low IC50 as higher potency.

Series [1] addresses TRH receptor-2 (TRHR-2). Kind of series: competition with 2 nM [^3H]TRH on HEK293 cells expressing TRHR-2.
In series [2] the target is TRH receptor-1 (TRHR-1). In words: competition with 2 nM [^3H]TRH on HEK293 cells expressing TRHR-1.
Series [3] deals with 465B12 antibody (raised to TRH).
The test system of series [4] is CR-V3-B53 antibody (raised to TRH).
Series [5] deals with T1, TRH receptor-2 (TRHR-2) (Rattus norvegicus, UniProt A6IZR3).
T1 sequence (A6IZR3 1-352): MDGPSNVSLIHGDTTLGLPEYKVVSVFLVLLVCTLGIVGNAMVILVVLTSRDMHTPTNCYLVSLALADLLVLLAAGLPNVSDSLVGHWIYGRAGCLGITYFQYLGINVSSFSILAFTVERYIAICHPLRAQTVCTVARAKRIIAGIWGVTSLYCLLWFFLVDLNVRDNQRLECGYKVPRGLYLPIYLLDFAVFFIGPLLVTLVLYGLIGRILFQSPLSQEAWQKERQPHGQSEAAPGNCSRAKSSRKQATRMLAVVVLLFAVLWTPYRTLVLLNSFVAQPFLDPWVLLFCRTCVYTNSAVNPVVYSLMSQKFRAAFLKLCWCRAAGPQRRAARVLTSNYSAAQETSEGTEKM
Kind of series: [3H]TRH competition binding, HEK293 cells expressing TRHR-2.

Series [6] concerns the target T2, TRH receptor-1 (TRHR-1) (Mus musculus, UniProt P21761).
T2 sequence (P21761 1-393): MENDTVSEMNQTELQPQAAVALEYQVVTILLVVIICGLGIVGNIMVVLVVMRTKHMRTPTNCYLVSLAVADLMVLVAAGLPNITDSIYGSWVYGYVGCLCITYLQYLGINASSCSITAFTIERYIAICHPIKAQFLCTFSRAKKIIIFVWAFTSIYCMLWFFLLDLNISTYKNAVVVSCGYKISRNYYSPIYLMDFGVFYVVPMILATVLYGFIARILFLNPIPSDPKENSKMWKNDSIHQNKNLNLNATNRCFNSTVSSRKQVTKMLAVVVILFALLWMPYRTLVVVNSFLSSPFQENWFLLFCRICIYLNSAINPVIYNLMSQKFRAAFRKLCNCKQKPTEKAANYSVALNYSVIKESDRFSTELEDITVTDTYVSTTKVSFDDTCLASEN
In words: [3H]TRH competition binding, HEK293 cells expressing TRHR-1.

For series [7], the system named is EEP (R^2=Glu) antibody (580B6).
Series [8] in a line: Serum T3 and T4 levels in Porsolt test animals. It counts as in vivo, rats. Particulars: for change in T3: animals of the Porsolt test; for effect upon T3 or T4 levels: at the dosage used; for T3 level: 0.5 mg/kg (sc). Here is the method:
A Porsolt swim test with rats was used to examine the antidepressant effects of peptides where R^2=Glu or R^2=Phe, as set forth in Lloyd, R. L. et al., Pharamcology, Biochemistry and Behavior, 70:15-22 (2001), incorporated herein by reference. […] No effect of the blocking variable or interaction of the blocking variable with treatment was found.
Using the animal models of Example 11, T3 (triiodothyronine) and T4 (thyroxine) levels were tested. Serum T3 was determined by […], using fluorescence polarization of a fixed concentration of a fluorescent analog of T3 as provided in the Abbott IMX System. T4 was also determined by radioimmunoassay. With EEP, no changes in T3 were observed. […] With ELP (where R^2 is Leu) and EFP there was an increase in T3, but this was not correlated to swim scores, with ELP not producing a behavioral effect, and EFP producing a marginal behavioral effect.

Series [9] in a line: Brain tissue analysis of TRH and EEP after peptide injection. Particulars: 0.5 mg/kg (sc). It counts as in vivo, rats.
The test system of series [10] is Porsolt forced swim animal model of depression. In words: Porsolt swim test. Type of series: in vivo, rats.
Protocol: Total immobility time versus swim time was recorded. Both high-dose (0.5 mg/kg sc) and low-dose injections (0.05 mg/kg ip) were used.
Series [11] concerns pentobarbital-anesthetized rats. It counts as in vivo, male Wistar rats. To be noted: for "wet dog" shaking while still anesthetized: rat, in vivo. Here is the method: Twenty minutes after loss of the righting reflex, 10 μL of either sterile saline or peptide of this invention (1 or 10 μg/10 μL sterile saline) was administered by intracisternal (IC) injection. The time from IC injection to recovery of the righting reflex, as measured three times within 10 seconds, was recorded.

The subject of series [12] is control HEK293 cells. In words: Intracellular calcium response (fura2), non-transfected control cells. It counts as cell-based. To be noted: Ca2+-free buffer. Here is the method:
The ability of peptides of the formula pGlu-[…] to stimulate an intracellular calcium response in transfected HEK293 of Example 5 was evaluated, to determine whether the peptides behave as agonists. […] The coverslip was then rinsed and placed in a Sykes-Moore chamber covered with 1 mL Ca^2+ and Mg^2+ free HBSS. Imaging was performed on a Nikon inverted microscope with a DAGE CCD72 camera and […] intensifier system. Cells were alternately excited at 340 and 380 nm and emission was measured at 490 nm; 340/380 ratios were obtained every 1.2 seconds and analyzed using Image-1 software from Universal Imaging Corporation. […] Peak responses from between 33 and 120 individual cells were averaged, and responses to TRH were measured with each set of cells as a standard. Most of the peptides caused a small increase in intracellular Ca^2+ when added to control HEK293 cells bathed in Ca^2+-containing medium, but with the exception of the R^2=Leu peptide, none of them evoked an appreciable Ca^2+ response in Ca^2+-free HBSS, which was used for all experiments.

The conditions of series [13]: 50 micrograms given at bedtime; reduced from 12; cited from earlier work.
Where [14] appears, read: high-dose (0.5 mg/kg sc), three injections.
Where [15] appears, read: tracer 125I-TRH, assay standard = 1.00.
Setting [16] is: low-dose (0.05 mg/kg ip), three injections.

Where two headings read alike, the source gives them in different places. Non-standard residues stand in square brackets, D forms with d. Residues, ends and D or L forms follow the SMILES beside them. pGlu = O=C1CC[C@@H](C(=O)O)N1

On to [pGlu]-Thr-Pro-NH2, for which the half-inhibitory concentration (IC50) in [1] and in series [2] was above 100 µg/mL throughout.

Take [pGlu]-Ser-Pro-NH2: the IC50 turned out to be 12.3 µg/mL in [1] and 21.7 µg/mL in series [2].

Regarding `NC(=O)CC[C@H](NC(=O)[C@@H]1CCC(=O)N1)C(=O)N1CCC[C@H]1C(N)=O` [R^2 = Gln, reference compound] ([pGlu]-Gln-Pro-NH2), the figures for the “relative potency for displacement of assay tracer” value (from here on “relative potency for displacement”) in [3], in [4] and in series [7] were 0.0225, 0.0055 and 1.00, respectively. The IC50 in [5] is 21.4 µM; in series [6], 27.7 µM.

For `NC(=O)[C@@H]1CCCN1C(=O)[C@H](CO)NC(=O)[C@@H]1CCC(=O)N1` [Ser, reference compound] ([pGlu]-Ser-Pro-NH2), the IC50 in [5] was 39.4 µM; in series [6], 69.5 µM.

As to [pGlu]-Phe-Pro-NH2, the half-maximal inhibitory concentration (IC50) is 1.25 µg/mL in series [1] and 1.58 µg/mL in series [2].

[pGlu]-Arg-Pro-NH2: the IC50 in series [1] and in series [2] was above 100 µg/mL in each case.

For [pGlu]-Glu-Pro-NH2, the IC50 in series [1] and in series [2] was above 100 µg/mL each time.

For [pGlu]-Val-Pro-NH2, the IC50 in series [1] and in [2] was above 100 µg/mL throughout.

On to [pGlu]-Gln-Pro-NH2, for which the IC50 in [1] turned out to be 7.57 µg/mL; in series [2], 9.8 µg/mL.

On to `NC(=O)[C@@H]1CCCN1C(=O)[C@H](Cc1ccccc1)NC(=O)[C@@H]1CCC(=O)N1` [R^2 = Phe, pGlu-Phe-Pro-NH2] ([pGlu]-Phe-Pro-NH2), for which, in series [8], the “change in T3” value is recorded as “increase”. Also, the “changes in TRH or EEP in brain regions (tissue analysis)” value in [9] is “failed to find any changes”. In series [5], this molecule gave an IC50 of 3.36 µM. The mean immobility time in [10] (0.5 mg/kg (sc)) worked out at 125 s. In addition, in series [10] (setting [14]), the “antidepressant effect compared to saline (total immobility time)” value (“antidepressant effect compared to saline” below) is on record as “effective”.

Take “pGlu-His-Pro-NH2, thyrotropin releasing hormone (TRH) (peptide)”: the 50% inhibitory concentration (IC50) in [1] came to 0.0088 µg/mL; in series [2], 0.0085 µg/mL.

Turning to `C[C@@H](O)[C@H](NC(=O)[C@@H]1CCC(=O)N1)C(=O)N1CCC[C@H]1C(N)=O` [Thr, reference compound] ([pGlu]-Thr-Pro-NH2), the IC50 in [5] and in series [6] was above 306 µM in each case.

On to `NC(=O)[C@@H]1CCCN1C(=O)[C@H](Cc1cnc[nH]1)NC(=O)[C@@H]1CCC(=O)N1` [TRH, pGlu-His-Pro-NH2, reference compound], for which the “relative potency for displacement” value in [3] (setting [15]) was determined as 1.00; in series [4] (setting [15]), 1.00; in [7] (setting [15]), 2.91. Also, the results for the “reduction in pentobarbitol-induced sleep time (analeptic effect)” value (shortened to “reduction”) in [11] (IC injection of 1 μg) and in series [11] (IC injection of 10 μg) were “did not result in a significant reduction” and “had an analeptic effect”, respectively. Further, in series [11], the “"wet dog" shaking while still anesthetized” value is on record as “frequently accompanied by “wet dog” shaking”. Further, in series [12], the “Ca2+ response” value is given as “no response”. The IC50 in [5] was 0.0243 µM; in series [6], 0.0235 µM.

Turning to [pGlu]-Leu-Pro-NH2, the values for the IC50 in series [1] and in series [2] were 0.66 µg/mL and 1.85 µg/mL, respectively.

Turning to [pGlu]-Tyr-Pro-NH2, the IC50 in series [1] and in series [2] was above 100 µg/mL throughout.

Regarding `N=C(N)NCCC[C@H](NC(=O)[C@@H]1CCC(=O)N1)C(=O)N1CCC[C@H]1C(N)=O` [Arg, reference compound] ([pGlu]-Arg-Pro-NH2), the IC50 in series [5] and in series [6] was above 262 µM each time.

Take `NC(=O)[C@@H]1CCCN1C(=O)[C@H](Cc1ccc(O)cc1)NC(=O)[C@@H]1CCC(=O)N1` [R^2 = Tyr, pGlu-Tyr-Pro-NH2] ([pGlu]-Tyr-Pro-NH2): the entries for the “relative potency for displacement” value in series [3] (setting [15]), in series [4] (setting [15]) and in [7] (setting [15]) were 9.85, 3.83 and 5.06, respectively. Besides, the “effect upon T3 or T4 levels” value in series [8] was “No effect”. For the same molecule, the IC50 in series [5] and in [6] was above 257 µM throughout. Moreover, in [10] (setting [16]), the “antidepressant effect compared to saline” value was “effective”.

For `CC(C)[C@H](NC(=O)[C@@H]1CCC(=O)N1)C(=O)N1CCC[C@H]1C(N)=O` [R^2 = Val, pGlu-Val-Pro-NH2] ([pGlu]-Val-Pro-NH2), the entries for the “relative potency for displacement” value in series [3] (setting [15]), in series [4] (setting [15]) and in [7] (setting [15]) were 0.161, 0.087 and 9.24, respectively. Besides, the “effect upon T3 or T4 levels” value in series [8] is “No effect”. In addition, in [11] (IC injection of 10 μg), the “reduction” value is “had an analeptic effect”. For the same molecule, the IC50 in series [5] and in [6] was above 308 µM throughout. Further, the “antidepressant effect compared to saline” value in series [10] (dose not stated) is “statistically meaningful behavioral effects were not observed”.

With `NC(=O)[C@@H]1CCCN1C(=O)[C@H](CCC(=O)O)NC(=O)[C@@H]1CCC(=O)N1` [R^2 = Glu, pGlu-Glu-Pro-NH2] ([pGlu]-Glu-Pro-NH2), the entries for the “relative potency for displacement” value in series [3] (setting [15]), in [4] (setting [15]) and in series [7] (setting [15]) were 0.02, 0.0092 and 1.00, respectively. Besides, the T3 level in series [8] (R^2=Glu experiment, no significant difference to saline) is 0.66 ng/mL; in [8] (R^2=Phe experiment, significant increase vs controls (P<0.028, one-tailed)) it was 0.85 ng/mL. For the same molecule, in [8], the “change in T3” value was “no changes”. Besides, the “effect upon T3 or T4 levels” value in series [8] is listed as “No effect”. The “reduction” value in series [11] (IC injection of 10 μg) was “had an analeptic effect”. In addition, the “"wet dog" shaking while still anesthetized” value in series [11] is “never produced shaking”. Further, the “changes in TRH or EEP in brain regions (tissue analysis)” value in series [9] is reported as “failed to find any changes”. Further, the half-maximal inhibitory concentration (IC50) in series [5] and in series [6] was above 282 µM each time. Besides, the mean immobility time in [10] (0.05 mg/kg (ip)) amounted to 121 s; in series [10] (0.5 mg/kg (sc)), 58 s. Moreover, the “antidepressant effect compared to saline” value in series [10] (setting [14]) and in [10] (setting [16]) was “effective” in each case.

As for `N[C@@H](Cc1cc(I)c(Oc2ccc(O)c(I)c2)c(I)c1)C(=O)O` [T3, liothyronine], in series [13], the “required numbers of ECTs” value is listed as 7.
